Patent publication US10214553B2, “Solid state forms of sofosbuvir” (ratiopharm GmbH, priority 2014, dated 2019)
In brackets after ≈: the same amount, converted by molar mass.

Tests used:
Assay type in all cases: physicochemical
[1] = Compressibility, maximum density at constant pressure of 0.2 MPa (TA-XT2 Texture analyser); conditions: 0.2 MPa per step, 10 steps
Experimental: As used herein, and unless indicated otherwise, the term “compressibility” is expressed as maximum density at constant pressure of 0.2 MPa.
Compression profiles were obtained using a die and a flat-faced punch fitted on a TA-XT2 Texture analyser (Stable Micro Systems Ltd., Godalming, UK).
200 mg of micronized crystalline form E of Sofosbuvir obtained according to example 8 is compressed in a steel mould (with the rate of displacement 0.03 mm/s). Cyclic procedure (similar to tapping) was performed: compressing, then retracting, relaxation for 15 s and then repeated compressive steps (altogether 10 steps). Each step exerts 0.2 MPa pressure on to the sample. Sample density is calculated by dividing the weight by the sample volume for each cycle. Maximum density is reached within 10 steps. The maximal compressive displacement was 0.5 mm. The resulting density was: 0.48 g/ml

[2] = DVS water vapor sorption (hygroscopicity); conditions: for critical relative humidity in the sorption curve at which the rate of water uptake changes (inflection point): DVS sorption curve; for Change in Mass (%): 25° C.
Experimental: The improved hygroscopic properties discussed herein above may be expressed by the dynamic water uptake monitored by the DVS instrument. The profile of the dynamic curve obtained may provide insight on the tendency of the substance to deliquescence. […] This behavior indicates a long-term possibility of the stored powder to stick and form lumps.
DVS measurements were performed SMS DVS instrument
Humidity range: 0%-90%-0% cycle. […]
minimum step duration: 60 min maximum step duration: 720 min

[3] = Propensity to become electrostatically charged
[4] = Particle size distribution by laser diffractometry (Mastersizer 2000, wet measurement); conditions: silicone oil
Experimental: If a wet measurement is used the particles to be measured are dispersed in a dispersant, preferably a dispersant having a refractive index (RI) of 1.403, and the measurement is carried out at 2000 rpm and ultrasound for 120 s prior to measurement. Preferably, unless otherwise indicated the particle size distribution is determined using a wet measurement using a Mastersizer 2000 from Malvern Instruments and Malvern Hydro 2000S wet sample dispersion unit and silicone oil as dispersant. Unless otherwise indicated, the following settings are preferably used:
(§1) Sofosbuvir form 6 prepared according to example 18 above and Sofosbuvir form 7 prepared according to example 16 above was used.
The particle size distribution was determined using a wet measurement using a Mastersizer 2000 from Malvern Instruments and Malvern Hydro 2000S wet sample dispersion unit and silicone oil as dispersant.

[5] = Solubility at 37° C. by UHPLC/UV; conditions: for solubility at 15 min / solubility at 1 h: 37 °C, thermodynamic from solid
Experimental: as §1
The solubility was determined as follows:
100 mg test substance was weighed into a glass vial, followed by addition of 4 mL solvent (water, 0.01 M HCl, 20 mM sodium acetate/acetic acid [pH 4.5], 50 mM KH2PO4 [pH 6.8]). A stirring bar was added, the vial was fixed in a block heater at 37° C. and the suspension was stirred with 250 rpm. After 15 min and 1 h, samples were withdrawn and filtered through a 0.2 μm PTFE filter. 100 μL of the clear filtrate were diluted with 900 μL acetonitrile/water mixture (1:1) and 1 μL thereof was analyzed by UHPLC/UV:
Instrument: Agilent 1290 Infinity
Column: Phenomenex Kinetex XB—C18, 1.7 μm, 50×3 mm
Solvent A: water+0.2% Formic acid+0.1% HFBA […] heptafluorobutyric acid)

[6] = Dissolution, USP apparatus II, paddle method; conditions: pH 6.8, after 5 minutes
Experimental: Sofosbuvir form 6 prepared according to example 18 above and Sofosbuvir form 7 prepared according to example 16 above was used. The dissolution of Sofosbuvir Form 7 and Form 6 was measured (in triplicate) in 50 mM phosphate buffer at 37° C. (pH 6.8, 900 mL), using USP apparatus II, paddle method. Every 5 minutes, a probe was taken and measured by UV/VIS at 260 nm and path length 0.1 cm; UV/VIS was measured on an Agilent model 8453 with Chem Station Dissolution Software. 400 mg of Sofosbuvir Form 7 or Form 6 was used for the test, and the percentages are given in relation to 400 mg of the API. The results are represented graphically in FIG. 13.

[7] = Storage stability of the solid form

SMILES: CC(C)OC(=O)[C@H](C)NP(=O)(OC[C@H]1O[C@@H](n2ccc(=O)[nH]c2=O)[C@](C)(F)[C@@H]1O)Oc1ccccc1 (stereo partly drawn) [(2S)-isopropyl 2-(((((2R,3R,4R,5R)-5-(2,4-dioxo-3,4-dihydropyrimidin-1(2H)-yl)-4-fluoro-3-hydroxy-4-methyltetrahydrofuran-2-yl)methoxy)(phenoxy)phosphoryl)amino)propanoate]
- resulting density (compressibility) [1]: 0.48 g/mL

SMILES: CC(C)OC(=O)[C@H](C)NP(=O)(OC[C@H]1O[C@@H](n2ccc(=O)[nH]c2=O)[C@](C)(F)[C@@H]1O)Oc1ccccc1 (stereo partly drawn) [Form 1, (2S)-isopropyl 2-(((((2R,3R,4R,5R)-5-(2,4-dioxo-3,4-dihydropyrimidin-1(2H)-yl)-4-fluoro-3-hydroxy-4-methyltetrahydrofuran-2-yl)methoxy)(phenoxy)phosphoryl)amino)propanoate]
- critical relative humidity in the sorption curve at which the rate of water uptake changes (inflection point) [2]: about 80 % RH
- water uptake ([2]; DVS, above 80% RH): about 5%
- Change in Mass (%) ([2]; DVS, relative humidity 70%): 0.13%
- Change in Mass (%) ([2]; DVS, relative humidity 90%): 5.57%

SMILES: CC(C)OC(=O)[C@H](C)NP(=O)(OC[C@H]1O[C@@H](n2ccc(=O)[nH]c2=O)[C@](C)(F)[C@@H]1O)Oc1ccccc1 (stereo partly drawn) [Form 6, (2S)-isopropyl 2-(((((2R,3R,4R,5R)-5-(2,4-dioxo-3,4-dihydropyrimidin-1(2H)-yl)-4-fluoro-3-hydroxy-4-methyltetrahydrofuran-2-yl)methoxy)(phenoxy)phosphoryl)amino)propanoate]
- propensity to become electrostatically charged [3]: high propensity to become electrostatically charged
- Particle size D10 [4]: 2.0 μm
- Particle size D50 [4]: 8.2 μm
- Particle size D90 [4]: 22.9 μm
- critical relative humidity in the sorption curve at which the rate of water uptake changes (inflection point) [2]: about 70 % RH
- water uptake ([2]; DVS, above 70% RH): about 1%
- Change in Mass (%) ([2]; DVS, relative humidity 70%): 0.14%
- Change in Mass (%) ([2]; DVS, relative humidity 90%): 1.08%
- Solubility ([5]; 0.01 M HCl, 15 min): 2500 µg/mL (≈ 4.72 mM)
- Solubility ([5]; 0.01 M HCl, 1 h): 2400 µg/mL (≈ 4.53 mM)
- Solubility ([5]; 20 mM NaOAc/HOAc (pH 4.5), 15 min): 2400 µg/mL (≈ 4.53 mM)
- Solubility ([5]; 20 mM NaOAc/HOAc (pH 4.5), 1 h): 2500 µg/mL (≈ 4.72 mM)
- Solubility ([5]; 50 mM KH2PO4 (pH 6.8), 15 min): 2300 µg/mL (≈ 4.34 mM)
- Solubility ([5]; 50 mM KH2PO4 (pH 6.8), 1 h): 2300 µg/mL (≈ 4.34 mM)
- Solubility ([5]; water, 15 min): 2400 µg/mL (≈ 4.53 mM)
- Solubility ([5]; water, 1 h): 2300 µg/mL (≈ 4.34 mM)

SMILES: CC(C)OC(=O)[C@H](C)NP(=O)(OC[C@H]1O[C@@H](n2ccc(=O)[nH]c2=O)[C@](C)(F)[C@@H]1O)Oc1ccccc1 (stereo partly drawn) [Form 7, (2S)-isopropyl 2-(((((2R,3R,4R,5R)-5-(2,4-dioxo-3,4-dihydropyrimidin-1(2H)-yl)-4-fluoro-3-hydroxy-4-methyltetrahydrofuran-2-yl)methoxy)(phenoxy)phosphoryl)amino)propanoate]
- solubility (percent dissolved) [6]: ≥ 65%
- solubility at 15 min ([5]; 0.01 M HCl, pH 2, simulated gastric fluid, 15 min): 3200 µg/mL (≈ 6.04 mM)
- solubility at 1 h ([5]; 0.01 M HCl, pH 2, simulated gastric fluid, 1 h): 3200 µg/mL (≈ 6.04 mM)
- solubility at 15 min ([5]; 20 mM sodium acetate/acetic acid buffer, pH 4.5, aqueous buffer, 20 mM NaOAc/HOAc (pH 4.5), 15 min): 3100 µg/mL (≈ 5.86 mM)
- solubility at 1 h ([5]; 20 mM sodium acetate/acetic acid buffer, pH 4.5, aqueous buffer, 20 mM NaOAc/HOAc (pH 4.5), 1 h): 3100 µg/mL (≈ 5.86 mM)
- solubility at 15 min ([5]; 50 mM KH2PO4 buffer, pH 6.8, aqueous buffer, 50 mM KH2PO4 (pH 6.8), 15 min): 3200 µg/mL (≈ 6.04 mM)
- solubility at 1 h ([5]; 50 mM KH2PO4 buffer, pH 6.8, aqueous buffer, 50 mM KH2PO4 (pH 6.8), 1 h): 3000 µg/mL (≈ 5.67 mM)
- solubility compared with the solubility of Form 6 ([5]; physiologically relevant solvents, after 15 min and after 1 hour): approximately one third higher
- solubility at 15 min ([5]; water, 15 min): 3100 µg/mL (≈ 5.86 mM)
- solubility at 1 h ([5]; water, 1 h): 3100 µg/mL (≈ 5.86 mM)

SMILES: CC(C)OC(=O)[C@H](C)NP(=O)(OC[C@H]1O[C@@H](n2ccc(=O)[nH]c2=O)[C@](C)(F)[C@@H]1O)Oc1ccccc1 (stereo partly drawn) [Form E, (2S)-isopropyl 2-(((((2R,3R,4R,5R)-5-(2,4-dioxo-3,4-dihydropyrimidin-1(2H)-yl)-4-fluoro-3-hydroxy-4-methyltetrahydrofuran-2-yl)methoxy)(phenoxy)phosphoryl)amino)propanoate]
- hysteresis between the desorption and the absorption isotherm ([2]; DVS): doesn't exhibit any hysteresis
- critical relative humidity in the sorption curve at which the rate of water uptake changes (inflection point) [2]: does not show this inflection point
- Change in Mass (%) ([2]; DVS, relative humidity 70%): 0.07%
- Change in Mass (%) ([2]; DVS, relative humidity 90%): 0.12%
- stable for ([7]; at 25 degrees): at least 3 months
- stable for ([7]; at 40 degrees): at least 3 months
